Experimental findings from patent US11149031B2, “Substituted N-(3-fluoropropyl)-pyrrolidine compounds, processes for their preparation and therapeutic uses thereof” (SANOFI, priority 2016, dated 2021) are described below.

Like-named read-outs stand apart in the source and are kept apart here.

For experiment [1], the system named is MCF7 cells expressing mutant estrogen receptor Asp 538 Gly. Description: Test B: cell proliferation/viability assay (CellTiter-Glo) on MCF7 Asp 538 Gly mutant. The experiment is classed as cell-based. To be noted: Homo sapiens, MCF7, 168 h, MCF7 cells expressing ER Asp 538 Gly mutant, 7 days of compound exposure, read-out: proliferation MCF7 D538G IC50. Summed up: (§1)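 Compound exposure lasted 7 days (3-0.000001 μM final, 9 points) in phenol red-free MEM with 5% charcoal dextran-stripped FBS. The mutant lines grew without estradiol. Luminescent signal, minus medium-only background, was expressed as percent of untreated cells.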

For experiment [2], the target named is His6-ERα298-554 Y537S mutant (ERα ligand-binding domain) (Homo sapiens (Human), UniProt P03372, Y537S). Briefly: Test A: biochemical antagonist activity, LanthaScreen TR-FRET ERα coactivator assay, Y537S mutant. To be noted: read-out: Antagonism Y537S IC50. Summed up:
(§2)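 IC50 values come from a 4-parameter logistic fit of the 520:495 nm TR-FRET ratio after overnight room-temperature incubation. The mix held 0.5 nM ERα 298–554 LBD, Tb-labelled anti-His6 antibody, 250 nM PGC1a peptide and 3 nM or 10 nM estradiol, pH 7.4 phosphate buffer with DTT.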

The test system of experiment [3] is MCF7 cells (breast tumor cells) WT. Description: Test B: cell proliferation/viability assay (CellTiter-Glo) on MCF7 WT. It is filed as cell-based. To be noted: Homo sapiens, MCF7, 168 h, 7 days of compound exposure. Summed up:
as §1

Experiment [4] has as its target His6-ERα298-554 D538G mutant (ERα ligand-binding domain) (Homo sapiens (Human), UniProt P03372, D538G). Briefly: Test A: biochemical antagonist activity, LanthaScreen TR-FRET ERα coactivator assay, D538G mutant. The following applies: read-out: Antagonism D538G IC50. Summed up:
as §2

Experiment [5] relates to MCF7 cells expressing mutant estrogen receptor Tyr 537 Ser. Briefly: Test B: cell proliferation/viability assay (CellTiter-Glo) on MCF7 Tyr 537 Ser mutant. The following applies: Homo sapiens, MCF7, 168 h, MCF7 cells expressing ER Tyr 537 Ser mutant, 7 days of compound exposure, read-out: proliferation MCF7 Y537S IC50. The experiment is classed as cell-based. In outline:
as §1

The target in experiment [6] is ERα in MCF7 cells (Homo sapiens (Human), UniProt P03372). Briefly: Test C: estrogen receptor degradation activity, ERα in cell western assay in MCF7 cells. It is filed as cell-based. To be noted: for DC50: 4 hours post compound addition, ERα in cell western, read-out: Degradation IC50; for % Degradation at 3 μM: 4 hours, relative to fulvestrant. Summed up: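 Steps: seed MCF7 in phenol red-free medium containing 5% charcoal-dextran stripped FBS; next day add compound, final 3–0.000018 μM; after 4 h fix with 5% formalin plus 0.1% Triton; stain ERα overnight, then secondary at 37 °C for 60 min with Syto-64 at 2 μM; scan green and red intensities.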
ERα in MCF7 cells, sequence (P03372 whole entry): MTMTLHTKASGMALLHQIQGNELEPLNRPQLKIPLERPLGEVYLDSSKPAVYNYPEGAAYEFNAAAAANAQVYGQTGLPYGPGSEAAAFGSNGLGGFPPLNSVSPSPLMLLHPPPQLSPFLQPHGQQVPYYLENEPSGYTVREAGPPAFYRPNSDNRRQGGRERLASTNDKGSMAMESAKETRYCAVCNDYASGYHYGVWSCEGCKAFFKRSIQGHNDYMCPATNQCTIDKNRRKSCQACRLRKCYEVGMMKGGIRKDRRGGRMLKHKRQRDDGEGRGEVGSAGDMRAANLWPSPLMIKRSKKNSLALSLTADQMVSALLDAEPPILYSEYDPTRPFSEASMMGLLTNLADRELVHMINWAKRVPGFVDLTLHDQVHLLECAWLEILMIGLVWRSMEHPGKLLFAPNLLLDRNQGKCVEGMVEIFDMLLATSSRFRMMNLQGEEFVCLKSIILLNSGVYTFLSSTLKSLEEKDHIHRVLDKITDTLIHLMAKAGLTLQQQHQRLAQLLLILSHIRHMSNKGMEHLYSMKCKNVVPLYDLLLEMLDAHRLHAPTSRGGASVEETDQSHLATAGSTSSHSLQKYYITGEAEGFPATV

Experiment [7] concerns the target His6-ERα298-554 WT (ERα ligand-binding domain) (Homo sapiens (Human), UniProt P03372). Description: Test A: biochemical antagonist activity, LanthaScreen TR-FRET ERα coactivator assay, WT. To be noted: read-out: Antagonism WT IC50. Summed up:
as §2

Setting [8] is: asterisk (*): protocol using 10 nM estradiol.

His6-ERα298-554 Y537S mutant (ERα ligand-binding domain), sequence (P03372 298-554 Y537S): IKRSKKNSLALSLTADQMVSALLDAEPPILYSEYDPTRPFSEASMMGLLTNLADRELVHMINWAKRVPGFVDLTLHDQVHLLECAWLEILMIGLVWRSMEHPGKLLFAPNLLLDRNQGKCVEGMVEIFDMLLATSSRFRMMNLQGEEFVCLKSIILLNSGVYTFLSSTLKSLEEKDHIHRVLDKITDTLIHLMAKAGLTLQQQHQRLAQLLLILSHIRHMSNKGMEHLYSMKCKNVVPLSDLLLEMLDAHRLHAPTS
His6-ERα298-554 WT (ERα ligand-binding domain), sequence (P03372 298-554): as the sequence (P03372 298-554 Y537S) above, with S240Y counted along it
His6-ERα298-554 D538G mutant (ERα ligand-binding domain), sequence (P03372 298-554 D538G): as the sequence (P03372 298-554 Y537S) above, with S240Y, D241G counted along it

As for `Cc1ccc(C2=C(c3ccc(O[C@H]4CCN(CCCF)C4)cc3)c3ccc(C(=O)O)cc3SC2)c(F)c1` [Example 25, 3-(2-fluoro-4-methyl-phenyl)-4-[4-[(3S)-1-(3-fluoropropyl)pyrrolidin-3-yl]oxyphenyl]-2H-thiochromene-7-carboxylic acid], the IC50 is 31 nM in experiment [1]; > 4000 nM in experiment [2] (setting [8]); 16 nM in experiment [3]; > 4000 nM in experiment [4] (setting [8]); 160 nM in experiment [5]; 1420 nM in experiment [7] (setting [8]). Further, in experiment [6], the DC50 was 19 nM. The “% Degradation at 3 μM” value in experiment [6] came to 93%.
As to `CC1(C)Cc2cc(C3=C(c4ccc(O[C@H]5CCN(CCCF)C5)cc4)c4ccc(O)cc4SCC3)ccc2N1` [Example 198, 4-(2,2-dimethylindolin-5-yl)-5-[4-[(3S)-1-(3-fluoropropyl)pyrrolidin-3-yl]oxyphenyl]-2,3-dihydro-1-benzothiepin-8-ol], the IC50 in experiment [1] turned out to be 1 nM; in experiment [2] (protocol with 3 nM estradiol) it was 6 nM; in experiment [3], 0.4 nM; in experiment [4] (protocol with 3 nM estradiol), 8 nM; in experiment [5], 6 nM; in experiment [7] (protocol with 3 nM estradiol) it was 1 nM. In addition, the DC50 in experiment [6] was 0.2 nM. The “% Degradation at 3 μM” value in experiment [6] is reported as 87%.
Regarding `Oc1ccc2c(c1)SCC(c1ccc(OC(F)(F)F)cc1F)=C2c1ccc(O[C@H]2CCN(CCCF)C2)cc1` [Example 37, 4-[4-[(3S)-1-(3-fluoropropyl)pyrrolidin-3-yl]oxyphenyl]-3-[2-fluoro-4-(trifluoromethoxy)phenyl]-2H-thiochromen-7-ol], the IC50 in experiment [1] stood at 0.6 nM; in experiment [2] (protocol with 3 nM estradiol), 475 nM; in experiment [3] it was 0.6 nM; in experiment [4] (protocol with 3 nM estradiol), 745 nM; in experiment [5] it was 4 nM; in experiment [7] (protocol with 3 nM estradiol) it was 41 nM. The DC50 in experiment [6] came out at 3 nM. The “% Degradation at 3 μM” value in experiment [6] amounted to 83%.
With `CC(C)(C)c1ccc(C2=C(c3ccc(N[C@H]4CCN(CCCF)C4)cc3)c3ccc(O)cc3CCC2)cc1` [Example 89, 6-(4-tert-butylphenyl)-5-[4-[[(3S)-1-(3-fluoropropyl)pyrrolidin-3-yl]amino]phenyl]-8,9-dihydro-7H-benzo[7]annulen-2-ol], the IC50 in experiment [1] is 1 nM; in experiment [2] (setting [8]) it was 423 nM; in experiment [3] it was 0.4 nM; in experiment [4] (setting [8]), 726 nM; in experiment [5], 5 nM; in experiment [7] (setting [8]), 27 nM. Also, the DC50 in experiment [6] worked out at 1 nM. Moreover, the “% Degradation at 3 μM” value in experiment [6] amounted to 91%.
Turning to `Oc1ccc2c(c1)SCCC(c1cccc3[nH]ccc13)=C2c1ccc(O[C@H]2CCN(CCCF)C2)cc1` [Example 178, 5-[4-[(3S)-1-(3-fluoropropyl)pyrrolidin-3-yl]oxyphenyl]-4-(1H-indol-4-yl)-2,3-dihydro-1-benzothiepin-8-ol], the IC50 turned out to be 2 nM in experiment [1]; 7 nM in experiment [2] (protocol with 3 nM estradiol); 0.5 nM in experiment [3]; 10 nM in experiment [4] (protocol with 3 nM estradiol); 16 nM in experiment [5]; 2 nM in experiment [7] (protocol with 3 nM estradiol). In addition, in experiment [6], the DC50 amounted to 0.4 nM. Besides, the “% Degradation at 3 μM” value in experiment [6] stood at 87%.
As for `Oc1ccc2c(c1)SCCC(c1ccc3cc[nH]c3c1)=C2c1ccc(O[C@H]2CCN(CCCF)C2)cc1` [Example 172, 5-[4-[(3S)-1-(3-fluoropropyl)pyrrolidin-3-yl]oxyphenyl]-4-(1H-indol-6-yl)-2,3-dihydro-1-benzothiepin-8-ol], the IC50 was found to be 2 nM in experiment [1]; 18 nM in experiment [2] (protocol with 3 nM estradiol); 0.2 nM in experiment [3]; 24 nM in experiment [4] (protocol with 3 nM estradiol); 12 nM in experiment [5]; 6 nM in experiment [7] (protocol with 3 nM estradiol). For the same compound, in experiment [6], the DC50 amounted to 0.4 nM. Besides, the “% Degradation at 3 μM” value in experiment [6] is reported as 87%.
With `Oc1ccc2c(c1)SCC(c1ccc(OC(F)F)c(F)c1)=C2c1ccc(O[C@H]2CCN(CCCF)C2)cc1` [Example 30, 3-[4-(difluoromethoxy)-3-fluoro-phenyl]-4-[4-[(3S)-1-(3-fluoropropyl)pyrrolidin-3-yl]oxyphenyl]-2H-thiochromen-7-ol], the IC50 in experiment [1] was 2 nM; in experiment [2] (protocol with 3 nM estradiol) it was 415 nM; in experiment [3], 1 nM; in experiment [4] (protocol with 3 nM estradiol), 694 nM; in experiment [5], 16 nM; in experiment [7] (protocol with 3 nM estradiol), 34 nM. Moreover, in experiment [6], the DC50 stood at 1 nM. The “% Degradation at 3 μM” value in experiment [6] turned out to be 91%.
Turning to `COc1ccc(C2=C(c3ccc(O[C@H]4CCN(CCCF)C4)cc3)c3ccc(O)cc3SCC2)c(F)c1` [Example 189, 4-(2-fluoro-4-methoxy-phenyl)-5-[4-[(3S)-1-(3-fluoropropyl)pyrrolidin-3-yl]oxyphenyl]-2,3-dihydro-1-benzothiepin-8-ol], the IC50 in experiment [1] was 1 nM; in experiment [2] (setting [8]) it was 19 nM; in experiment [3] it was 0.2 nM; in experiment [4] (setting [8]), 31 nM; in experiment [5], 4 nM; in experiment [7] (setting [8]), 2 nM. Moreover, in experiment [6], the DC50 amounted to 0.3 nM. Moreover, the “% Degradation at 3 μM” value in experiment [6] was determined as 88%.
In the case of `CC(C)(C)c1ccc(C2=C(c3ccc(O[C@H]4CCN(CCCF)C4)cc3)c3cc(O)ccc3CC2)cc1` [Example 11, 7-(4-tert-butylphenyl)-8-[4-[(3S)-1-(3-fluoropropyl)pyrrolidin-3-yl]oxyphenyl]-5,6-dihydronaphthalen-2-ol], the IC50 in experiment [1] was 162 nM; in experiment [2] (setting [8]), > 4000 nM; in experiment [3], 44 nM; in experiment [4] (setting [8]), > 4000 nM; in experiment [5], > 999 nM; in experiment [7] (setting [8]) it was > 4000 nM. In experiment [6], the DC50 worked out at 49 nM. Further, the “% Degradation at 3 μM” value in experiment [6] came out at 80%.
For the compound `CCOc1ccc(C2=C(c3ccc(O[C@H]4CCN(CCCF)C4)cc3)c3ccc(O)cc3SCC2)c(F)c1F` [Example 217, 4-(4-ethoxy-2,3-difluoro-phenyl)-5-[4-[(3S)-1-(3-fluoropropyl)pyrrolidin-3-yl]oxyphenyl]-2,3-dihydro-1-benzothiepin-8-ol], the IC50 in experiment [1] is 0.6 nM; in experiment [2] (setting [8]), 39 nM; in experiment [3] it was 0.1 nM; in experiment [4] (setting [8]) it was 61 nM; in experiment [5], 5 nM; in experiment [7] (setting [8]) it was 4 nM. Further, the DC50 in experiment [6] is 0.2 nM. The “% Degradation at 3 μM” value in experiment [6] turned out to be 87%.
For the compound `Nc1ccc(C2=C(c3ccc(O[C@H]4CCN(CCCF)C4)cc3)c3ccc(O)cc3SC2)c(F)n1` [Example 72, 3-(6-amino-2-fluoro-3-pyridyl)-4-[4-[(3S)-1-(3-fluoropropyl)pyrrolidin-3-yl]oxyphenyl]-2H-thiochromen-7-ol], the IC50 was 0.5 nM in experiment [1]; 108 nM in experiment [2] (setting [8]); 2 nM in experiment [3]; 202 nM in experiment [4] (setting [8]); 1 nM in experiment [5]; 11 nM in experiment [7] (setting [8]). Moreover, the DC50 in experiment [6] was determined as 0.2 nM. Further, the “% Degradation at 3 μM” value in experiment [6] came to 91%.
In the case of `Oc1ccc2c(c1)SCCC(c1cnc3c(c1)CCN3)=C2c1ccc(O[C@H]2CCN(CCCF)C2)cc1` [Example 183, 4-(2,3-dihydro-1H-pyrrolo[2,3-b]pyridin-5-yl)-5-[4-[(3S)-1-(3-fluoropropyl)pyrrolidin-3-yl]oxyphenyl]-2,3-dihydro-1-benzothiepin-8-ol], the IC50 came out at 5 nM in experiment [1]; 70 nM in experiment [2] (protocol with 3 nM estradiol); 1 nM in experiment [3]; 122 nM in experiment [4] (protocol with 3 nM estradiol); 73 nM in experiment [5]; 7 nM in experiment [7] (protocol with 3 nM estradiol). Moreover, the DC50 in experiment [6] worked out at 1 nM. Moreover, the “% Degradation at 3 μM” value in experiment [6] came to 83%.
Take `Oc1ccc2c(c1)SCC(c1ccc(OC3COC3)cc1)=C2c1ccc(O[C@H]2CCN(CCCF)C2)cc1` [Example 44, 4-[4-[(3S)-1-(3-fluoropropyl)pyrrolidin-3-yl]oxyphenyl]-3-[4-(oxetan-3-yloxy)phenyl]-2H-thiochromen-7-ol]: the IC50 in experiment [1] is > 999 nM; in experiment [2] (setting [8]), 1820 nM; in experiment [3] it was > 999 nM; in experiment [4] (setting [8]), 2930 nM; in experiment [5], > 999 nM; in experiment [7] (setting [8]), 172 nM. The DC50 in experiment [6] was determined as 8 nM. In experiment [6], the “% Degradation at 3 μM” value was 89%.
